Results: patent publication US11590110B2, “Compositions and methods for reactivating latent immunodeficiency virus using a GSK-3 inhibitor” (priority 2017, dated 2023)

Columns and labels:
[1] = tested on: latent HIV-1 in blood CD4+ T cells from infected individuals on suppressive ART; assay type: cell-based
CD4+ T cells = test: Example 5: cytokines release assay (V-PLEX pro-inflammatory panel); assay type: cell-based, human; conditions: 48 hours; culture supernatant of CD4+ T cells
Method: Supernatant was collected from the treated cell cultures described above and stored at −80° C. for later analysis. Supernatant cytokine levels were determined using a V-PLEX Proinflammatory Panel 1 (human) Kit (#K15049D-1) and a V-PLEX IL-17A Gen. B (human) (#K151WMD) from Meso Scale Discovery, following the manufacturer's protocol. The assay was done on undiluted supernatant samples in order to increase the sensitivity of the assay.

NK cells = test: Example 5: NK cell viability and cytotoxic effector functions; assay type: cell-based, human
Method: Density centrifugation using a Ficoll-Hypaqua gradient was performed to purify PBMCs from continuous-flow centrifugation leukapheresis product. Subsequently, cells were plated in 96-well U-bottom plated in complete RPMI, which was supplemented with 10 ng/ml recombinant IL-15 (R&D systems), treated with LRAs or vehicle controls (DMSO) and incubated at 37° C., 5% CO2 for 48 h. To assay NK cell functionality, cells were analyzed by flow cytometry. Briefly, 1×10^6 cells/200 ul were stained with FITC anti-CD107 antibodies (1:50, BD Biosciences), mixed with 1×10^5 K562 cells and incubated at 37° C., 5% CO2 for 1 h. Then, in order to enhance intracellular cytokine staining, protein transport was blocked with Brefeldin A (Sigma-Aldrich) and golgi stop (BD Biosciences) according to the manufacturer instructions and the cells were incubated at 37° C., 5% CO2 for another 5 h. Afterwards, cells were spun down (5 min, 330×g, RT), the supernatant was removed and the cells were stained using Zombie violet (1:50, Biolegend) according to the manufacturer protocol. Subsequently, cells were stained for surface proteins staining with the following antibodies: APC/Cy7 anti CD3 (1:100, Biolegend), APC anti CD14 (1:100, Biolegend), APC anti CD19 (1:100, Biolegend), PE/Cy7 anti CD56 (1:100, BD Biosciences), Alexa Fluor 700 anti CD16 (1:100, Biolegend), PE anti CD7 (1:50, Thermo Fisher Scientific) for 15 min at room temperature. Next, cells were permeabilized and fixed using the Foxp3/Transcription Factor Fixation/Permeabilization Concentrate and Diluent kit (eBioscience) and stained intracellularly with PerCP/Cy5 anti IFN-γ (1:50, BD Bioscience) in FOXP3 perm/wash buffer for 1 h at 4° C. Finally, cells were washed and fixed in 1% paraformaldehyde/PBS, and subjected to flow cytometry analysis on a LSRII (BD Biosciences). Data were obtained using FlowJo software (Treestar). Samples were gated for singlets, live, CD3 negative, CD14/CD19 negative and CD7 positive cells as previously described (York, Milush). CD16high/CD56dim, CD16dim/CD56high cells were considered for analysis of IFN-γ and CD107a positivity. All gates were defined, based on fluorescence minus one (FMO) samples.

[2] = tested on: HIV-specific CD8+ T cells; test: Example 5: granzyme B cytotoxicity assay and infected CD4+ T-cell elimination (ICE); assay type: cell-based, human; conditions: 1 μM for 6 days
Method: PBMCs were co-incubated with HIVSF162-infected autologous CD4^+ T-cell targets (E:T 25:1)+/−tideglusib at a final concentration of […] in 96 deep (1 mL) well plates for 6 days. As before, cultured day 6 cells were then labeled with immuno-magnetic beads (CD8 T-cell Isolation Kit II, Miltenyi Biotec) prior to negative selection of CD8^+ T-cells by magnetic automated cell sorting (ref Migueles et al., 2008, 2009). Cytotoxic responses were measured against LIVE/DEAD Fixable Violet Stain (Molecular Probes, Invitrogen Detection Technologies, Eugene, Oreg., USA)-labeled HIVSF162-infected or uninfected autologous CD4^+ T-cell targets in assays examining GrB target cell activity and infected CD4^+ T-cell elimination (ICE) as previously reported (ref Migueles et al., 2008, 2009). Cells were analyzed on a FACSAria multi-laser cytometer (Becton-Dickinson) with FACSDiva software. Gates were drawn on labeled CD4^+ T-cell targets and 5,000-15,000 events were collected. Color compensations were performed using single-stained samples for each of the fluorochromes used. Data were analyzed using FlowJo software (TreeStar, San Carlos, Calif.).

patient CD4+ T cells = test: Example 7: viability of patient CD4+ T cells, Cell-titer blue; conditions: 48 h
[3] = pre-treatment 1 μM 48 hours, then K562 cells

SMILES: O=c1sn(-c2cccc3ccccc23)c(=O)n1Cc1ccccc1 [Tideglusib, 4-benzyl-2-(naphthalen-1-yl)-1,2,4-thiadiazolidine-3,5-dione]
- release of virus-associated HIV-1 mRNA relative to bryostatin-1, by median values ([1]; 1 μM tideglusib vs 10 nM bryostatin-1): twofold more
- virus-associated HIV-1 mRNA, median value ([1]; 1 μM, 48 hours, relative to untreated control): 10.3 fold
- production and release of pro-inflammatory cytokines (CD4+ T cells): does not induce T cell activation or cytokine production
- viability of NK cells (NK cells; 48 hours): did not reduce viability
- IFN-γ production in NK cells (NK cells; [3]): increase in IFN-γ production
- increase of surface expression of CD107a in NK cells (NK cells; [3]): less marked
- CD8+ T-mediated infected CD4+ T-cell elimination (ICE) ([2]; 1 hour with infected CD4+ T targets): did not alter production of granzyme B (GrB) or prevent CD8^+ T-mediated infected CD4^+ T-cell elimination (ICE)
- production of granzyme B (GrB) ([2]; PBMCs of HIV-positive progressors): did not alter production of granzyme B
- toxicity based on cell-titer blue testing (patient CD4+ T cells): Neither tideglusib nor SB216763 induced toxicity
